According to publication PMC9240354, “Pharmacokinetics, Pharmacodynamics and Antiviral Efficacy of the MEK Inhibitor Zapnometinib in Animal Models and in Humans” (Frontiers in Pharmacology, 2022):
Values after ≈ are worked out from the molar mass of the structure shown. Where two headings read alike, the source gives them in different places.

Key:
[1] = set-up: method as in Koch-Heier et al., manuscript in preparation; conditions: mice, 75 mg/kg; previously unpublished preclinical data; ref Koch-Heier et al., manuscript in preparation; cited from earlier work
[2] = healthy volunteers, n = 8
in vivo [3] = conditions: beagle, dog, po, 30 mg/kg
MEK [4] = test: MEK inhibition in PBMCs of treated mice (pERK/ERK, Wes); type: in vivo, C57BL/6 mice
Procedure: (§1) PBMCs were isolated from the same blood samples (30 µl mouse blood, 50 µl hamster blood, or 1 ml dog blood) used for pharmacokinetic analysis. After plasma separation as described in the section above (Blood sampling and preparation of plasma samples), the remaining red blood cells were lysed by adding 1 volume of red blood cell (RBC) lysis buffer (Thermo Fisher Scientific, Waltham, MA, United States) (300 µl for mice, 500 µl for hamster, and 10 ml for dogs). The samples were incubated for 15 min at RT and centrifuged at 500 x g for 5 min (RT). The supernatant was removed completely, and the pellet was washed twice with PBS. The PBMC cell pellets were store at −80°C until further analysis. PBMCs of 8 ml human blood were isolated using CPT^TM tubes. After a 20-min centrifugation at 1,650 x g at room temperature, the plasma was collected for PK analysis as described in the section above (Blood sampling and preparation of plasma samples). […]
The pharmacodynamic assessment was performed using the Wes™ (Simple Western™) system which uses capillary electrophoresis to separate, identify and quantify proteins of interest. A chemiluminescence signal for each identified protein is detected and the area under the peak is calculated, which is then used for quantification. The 0.1x Sample Buffer, 400 mM dithiothreitol (DTT) solution, 5x Fluorescence Master Mix, and the Biotinylated Ladder (ProteinSimple®, Abingdon, Oxford, United Kingdom) were prepared according to manufacturer’s instructions. […] Then the 5x Fluorescence Master Mix in DTT (ProteinSimple®) was added, and the samples were denatured for 5 min at 95°C, loaded onto the assay plate and analyzed using specific antibodies. […] The anti-rabbit secondary antibody (Cat# DM-001) was also purchased from ProteinSimple® and was ready to use. Data were analyzed with Compass software for simple western (ProteinSimple®). Using the ratio of pERK to ERK of each sample compared to control (pre-dose), the level of ERK phosphorylation was calculated and then converted into the percentage level of MEK inhibition.

MEK [5] = test: MEK inhibition in PBMCs of treated beagle dogs (pERK/ERK, Wes); type: in vivo; conditions: formulation 3, plasma concentrations until Cmax vs ERK phosphorylation in PBMCs
Procedure: as §1, with “analysis.” for “analysis. PBMCs of 8 ml human blood were isolated using CPT^TM tubes. After a 20-min centrifugation at 1,650 x g at room temperature, the plasma was collected for PK analysis as described in the section above (Blood sampling and preparation of plasma samples).”
The pharmacodynamic assessment was performed using the Wes™ (Simple Western™) system which uses capillary electrophoresis to separate, identify and quantify proteins of interest. A chemiluminescence signal for each identified protein is detected and the area under the peak is calculated, which is then used for quantification. The 0.1x Sample Buffer, 400 mM dithiothreitol (DTT) solution, 5x Fluorescence Master Mix, and the Biotinylated Ladder (ProteinSimple®, Abingdon, Oxford, United Kingdom) were prepared according to manufacturer’s instructions. […] The anti-rabbit secondary antibody (Cat# DM-001) was also purchased from ProteinSimple® and was ready to use. […]

clinical = conditions: both, human, in vivo; for AUC(0-t): healthy volunteers, n = 8
[6] = mice
MEK [7] = test: MEK inhibition in PBMCs of healthy human volunteers (pERK/ERK, Wes); type: in vivo
Procedure: PBMCs were isolated from the same blood samples (30 µl mouse blood, 50 µl hamster blood, or 1 ml dog blood) used for pharmacokinetic analysis. After plasma separation as described in the section above (Blood sampling and preparation of plasma samples), the remaining red blood cells were lysed by adding 1 volume of red blood cell (RBC) lysis buffer (Thermo Fisher Scientific, Waltham, MA, United States) (300 µl for mice, 500 µl for hamster, and 10 ml for dogs). The samples were incubated for 15 min at RT and centrifuged at 500 x g for 5 min (RT). The supernatant was removed completely, and the pellet was washed twice with PBS. The PBMC cell pellets were store at −80°C until further analysis. PBMCs of 8 ml human blood were isolated using CPT^TM tubes. After a 20-min centrifugation at 1,650 x g at room temperature, the plasma was collected for PK analysis as described in the section above (Blood sampling and preparation of plasma samples). The PBMC layer was collected in a 15 ml tube (Greiner Bio-One, Frickenhausen, Germany), and washed twice with PBS by centrifugation at 300 x g for 10 min at RT. The PBMC pellets were store at −80°C until further PD assessment.
(§2) The pharmacodynamic assessment was performed using the Wes™ (Simple Western™) system which uses capillary electrophoresis to separate, identify and quantify proteins of interest. A chemiluminescence signal for each identified protein is detected and the area under the peak is calculated, which is then used for quantification. The 0.1x Sample Buffer, 400 mM dithiothreitol (DTT) solution, 5x Fluorescence Master Mix, and the Biotinylated Ladder (ProteinSimple®, Abingdon, Oxford, United Kingdom) were prepared according to manufacturer’s instructions. For all species, PBMCs were lysed in 1x radioimmunoprecipitation assay (RIPA) buffer (containing 0.24% (w/v) tris base (Sigma-Aldrich, St. Louis, MO, United States), 0.88% (w/v) NaCl (Carl Roth GmbH, Karlsruhe, Germany), 0.2% (v/v) 500 mM EDTA (Sigma-Aldrich), 1% (v/v) Triton X-100 (Sigma-Aldrich), 0.5% (w/v) sodium deoxycholate (Sigma-Aldrich), 0.1% (w/v) sodium dodecyl sulfate (SDS) (Carl Roth), 10% (v/v) glycerol (Carl Roth), 0.05% phenylmethyl sulfonyl fluoride (PMSF) (Carl Roth), 0.01% Benzonase® Nuclease (Sigma-Aldrich), protease inhibitor cocktail (Roche, Basel, Switzerland), and phosphatase inhibitor cocktail (Roche) in H2O), further diluted with 0.1x Sample Buffer (ProteinSimple®, Abingdon, Oxford, United Kingdom) to adjust the protein concentration to 1 μg/μl. Then the 5x Fluorescence Master Mix in DTT (ProteinSimple®) was added, and the samples were denatured for 5 min at 95°C, loaded onto the assay plate and analyzed using specific antibodies. […] The anti-rabbit secondary antibody (Cat# DM-001) was also purchased from ProteinSimple® and was ready to use. Data were analyzed with Compass software for simple western (ProteinSimple®). Using the ratio of pERK to ERK of each sample compared to control (pre-dose), the level of ERK phosphorylation was calculated and then converted into the percentage level of MEK inhibition.

MEK [8] = test: MEK inhibition in PBMCs, summary regardless of species; type: in vivo, mice, hamsters, dogs, human
Procedure: as §2

in vivo [9] = conditions: Syrian, hamster; for AUC(0-t) / Cmax / Tmax: po
[10] = single oral dose 100 mg, vs pre-dose
[11] = single oral dose 300 mg, vs pre-dose
[12] = single oral dose 600 mg, vs pre-dose
[13] = single oral dose 900 mg, vs pre-dose

For `O=C(O)c1ccc(F)c(F)c1Nc1ccc(I)cc1Cl` [zapnometinib, 2-(2-Chloro-4-Iodophenylamino)-N-3,4-Difluoro benzoic acid], the tolerability [1] is listed as “well tolerated”, the C24 h ([2]; single oral dose 100 mg) is listed as 1000 ± 400 ng/mL and the C24 h ([2]; single oral dose 300 mg) is listed as 4000 ± 800 ng/mL. It also gave a C24 h ([2]; single oral dose 600 mg) of 8000 ± 2000 ng/mL, a C24 h ([2]; single oral dose 900 mg) of 16000 ± 6000 ng/mL and a half-life (in vivo [3]) of 4 to 5 h. The “MEK inhibition, first maximum” value (MEK [4]; 2 h after first treatment) was 72 ± 10%, the “MEK inhibition, second maximum” value (MEK [4]; 22 h after first treatment (14 h after second)) was 80 ± 5% and the “MEK inhibition at end of observation period” value (MEK [4]; t = 24 h) was 66 ± 19%. The “IC50 (plasma concentration reducing ERK phosphorylation by 50% compared to pre-dose)” value (MEK [5]) was 12.5 µg/mL (≈ 30.5 µM), the half-life (clinical) was 19 h and the Cmax (clinical; po, 100 mg) was 9000 ± 2000 ng/mL. For the same molecule, the Tmax (clinical; po, 100 mg) was 2 h, the half-life (clinical; po, 100 mg) was 19.6 ± 5.3 h and the AUC(0-t) (clinical; po, 100 mg, AUC0-t, single oral dose 100 mg) was 115 ± 10 µg·h/mL. For the same molecule, the AUC(0-t) (clinical; po, 100 mg, AUC0–24 h, single oral dose 100 mg) was 84 ± 9 µg·h/mL, the Cmax (clinical; po, 300 mg) was 13000 ± 4000 ng/mL and the Tmax (clinical; po, 300 mg) was 4 h. For the same molecule, the half-life (clinical; po, 300 mg) was 19.8 ± 5.8 h, the AUC(0-t) (clinical; po, 300 mg, AUC0-t, single oral dose 300 mg) was 241 ± 18 µg·h/mL and the AUC(0-t) (clinical; po, 300 mg, AUC0–24 h, single oral dose 300 mg) was 157 ± 16 µg·h/mL. It also gave a Cmax (clinical; po, 600 mg) of 35000 ± 7000 ng/mL, a Tmax (clinical; po, 600 mg) of 4 h and a half-life (clinical; po, 600 mg) of 21.9 ± 6.8 h. It also gave an AUC(0-t) (clinical; po, 600 mg, AUC0-t, single oral dose 600 mg) of 617 ± 51 µg·h/mL, an AUC(0-t) (clinical; po, 600 mg, AUC0–24 h, single oral dose 600 mg) of 411 ± 44 µg·h/mL and a Cmax (clinical; po, 900 mg) of 46000 ± 16000 ng/mL. It also gave a Tmax (clinical; po, 900 mg) of 4 h, a half-life (clinical; po, 900 mg) of 23.7 ± 8.2 h and an AUC(0-t) (clinical; po, 900 mg, AUC0-t, single oral dose 900 mg) of 1000 µg·h/mL. For the same molecule, the AUC(0-t) (clinical; po, 900 mg, AUC0–24 h, single oral dose 900 mg) was 629 ± 83 µg·h/mL, the “plasma concentration two hours after the second administration” value ([6]; 25 mg/kg p.o. twice, t = 10 h) was 101000 ± 16000 ng/mL and the “plasma concentration prior to the second treatment” value ([6]; 25 mg/kg p.o., t = 8 h) was 36000 ± 8000 ng/mL. For the same molecule, the “MEK inhibition at Cmax” value (MEK [7]; doses 100, 300 and 600 mg taken together) was “approximately 60%”, the “MEK inhibition at 24 h” value (MEK [7]; [10]) was 35 ± 25% and the “MEK inhibition at Cmax” value (MEK [7]; [10]) was 63 ± 8%. The “MEK inhibition at 24 h” value (MEK [7]; [11]) was 41 ± 26%, the “MEK inhibition at Cmax” value (MEK [7]; [11]) was 61 ± 18% and the “MEK inhibition at 24 h” value (MEK [7]; [12]) was 37 ± 20%. For the same molecule, the “MEK inhibition at Cmax” value (MEK [7]; [12]) was 64 ± 22%, the “MEK inhibition at 24 h” value (MEK [7]; [13]) was 26 ± 26% and the “MEK inhibition at Cmax” value (MEK [7]; [13]) was 79 ± 20%. For the same molecule, the “concentration to inhibit 50% of PBMC MEK activity” value (MEK [8]; across all species) was “approximately 10 μg/ml”, the “MEK inhibition in PBMCs, maximum observed” value (MEK [8]; regardless of species) was “up to 80%” and the “MEK inhibition maintained 24 h after dosing” value (MEK [8]; regardless of species, almost all zapnometinib eliminated from plasma) was “up to 50%”. It also gave a half-life (in vivo [9]) of 8 h, an AUC(0-t) (in vivo [9]; 15 mg/kg) of 121 ± 4 µg·h/mL and a Cmax (in vivo [9]; 15 mg/kg) of 15000 ± 1000 ng/mL. It also gave a Tmax (in vivo [9]; 15 mg/kg) of 3 ± 1 h, an AUC(0-t) (in vivo [9]; 60 mg/kg) of 623 ± 87 µg·h/mL and a Cmax (in vivo [9]; 60 mg/kg) of 61000 ± 2000 ng/mL. The Tmax (in vivo [9]; 60 mg/kg) was 3 ± 1 h.
